For the test, the system named is CT26 challenge tumors. In words: Anti-tumor vaccination assay (whole-cell vaccine, live CT26 challenge). Conditions: challenge tumor at day 26; mice immunized with CT26 cells treated in vitro (plasma 300 mJ or Cisplatin 50 μM 24 hours). It is filed as in vivo, Balb/c mice. On the procedure: To ascertain whether the DAMP signals elicited by plasma could enhance immune responses against cancer, a vaccination assay was performed. […] Cells were prepared for inoculation and injected into the left flank as a whole-cell vaccine to allow an immune response to develop. One week after immunization, mice were challenged with live CT26 cancer cells on the opposite flank and tumor growth was monitored twice a week until day 26 when the study was terminated as a subset of the animals reached IACUC-approved endpoints (FIG. 8A). CT26 cells treated with media only or Cisplatin (50 μM for 24 hours), a non-ICD inducer, [60] were used as controls.
Cisplatin-vaccine was prepared from cells incubated for 24 hours in Cisplatin media. Media-Vaccine was prepared from cells cultured in regular, complete media for 24 hours. Cisplatin- and media-vaccines were used as controls.
After a 24-hour incubation 3×10^6 cells in 100 μL of PBS were inoculated subcutaneously into the left flank of Balb/c mice. Seven days later, mice were challenged with 3×10^5 live CT26 cells subcutaneously injected into the right flank. Tumors were measured twice weekly with calipers and all mice were euthanized on […].

For `N.N.[Cl][Pt][Cl]` [Cisplatin], the mean tumor volume is on record as 1041.8±208.3 mm^3.

Values taken from patent US11219118B2 (Drexel University, priority 2018, dated 2022).
